For orientation: MIC means the least concentration at which growth counts as inhibited. One may read the pIC50 as the negative decadic logarithm of the IC50, by convention in mol/L. Low values mean a high IC50, high ones a low IC50.

pIC50: −log10 of the molar value. In brackets after ≈: the same amount, converted by molar mass.

The test system of one test is C. albicans. Description: Minimum Inhibitory Concentration (MIC) (C. albicans), CLSI M27-A2. The class given is cell-based. The following applies: Candida albicans; about 50% growth reduction; approx. 48 h at 35 °C. On the procedure:
A. Minimum Inhibitory Concentration (MIC) (C. albicans) Compounds of the present disclosure were assessed for their ability to inhibit the growth of common strains of fungus, C. albicans using a standardized procedure (CLSI M27-A2). Stock solutions of the test compounds and standards were prepared in DMSO at 1,600 μg/mL (C. albicans). Eleven, serial, one-half dilutions of compounds were prepared in 96-well plates in RPMI+MOPS. The assay concentration ranges were 8-0.001 μg/mL (C. albicans). Cell suspensions of C. albicans were prepared and added to each well at concentrations of approximately 3.7×10^3 colony-forming-units per milliliter (cfu/mL). All testing was in duplicate. The inoculated plates were incubated for approximately 48 h at 35±1° C. At the completion of incubation the wells of each plate were evaluated visually for the presence of fungal growth. […] For QC purposes C. krusei isolate ATCC 6258 (4.0×10^3 cfu/mL) was included in the VOR assay.

A further test deals with CYP2C19 (Homo sapiens (Human), UniProt P33261). Briefly: biochemical.
The next test addresses CYP2C9 (Homo sapiens (Human), UniProt P11712). Description: biochemical.
The target in another test is CYP3A4 (Homo sapiens (Human), UniProt P08684). Briefly: biochemical.
Test [1] has as its system Puccinia recondita tritici. Briefly: Fungicidal activity vs. leaf rust on wheat plants (PUCCRT). The following applies: 50 ppm spray on wheat (variety Yuma); inoculated the following day; severity evaluated 7-9 days later. The format is in vivo, Puccinia recondita tritici=Puccinia triticina. An excerpt:
D. Evaluation of Fungicidal Activity Vs. Leaf Rust (Causal Agent Puccinia recondita tritici=Puccinia triticina; Bayer Code PUCCRT).
Each pot contained 3-8 seedlings. These plants were sprayed until wet with the formulated test compounds. The compounds were formulated at 50 ppm in 10 vol. % acetone plus 90 vol. % Triton X water (deionized water 99.99 wt %+0.01 wt % Triton X100), giving a “formulated test compound.” Formulated test compounds were applied to plants using a turn table sprayer fitted with two opposing air atomization nozzles which delivered approximately 1500 L/ha of spray volume. On the following day, the leaves were inoculated with an aqueous spore suspension of Puccinia recondita tritici and the plants were kept in high humidity overnight to permit spores to germinate and infect the leaf. The plants were then transferred to a greenhouse until disease developed on untreated control plants. Disease severity was evaluated 7-9 days later, depending on the speed of disease development. Compounds 4(−), 9(+), 11, 13, 18, 21, 25, 26, 27, 28, 32, 34, 37, 38, 39, 42, 43, 48, 51, 52, 56, 57, and 59 were selected for testing against PUCCRT at 50 ppm. Compounds that provided >80% disease control at 50 ppm included 4(−), 9(+), 11, 13, 18, 21, 25, 26, 27, 28, 32, 34, 37, 38, 39, 42, 43, 48, 52, 56, and 57.

Test [2] deals with Septoria tritici (ATCC 26517). Description: Minimum Inhibitory Concentration (MIC) (Septoria tritici), CLSI-based microdilution. The following applies: Zymoseptoria tritici, ATCC26517, 168 h; S. tritici ATCC 26517; 50% growth reduction; 7 days at 22 °C; read-out: Septoria Rating (MIC). The format is cell-based. On the procedure:
C. Minimum Inhibitory Concentration (MIC) (Septoria tritici) Compounds of the present disclosure were assessed for their ability to inhibit the growth of a common strain of the fungal plant pathogen Septoria tritici (ATCC 26517) using a procedure based on a Clinical and Laboratory Standards Institute (CLSI) microdilution assay protocol for filamentous fungi. Stock solutions of the test compounds and standards were prepared in DMSO at 6400 μg/mL. Each stock solution was used to prepare a 2-fold dilution series ranging from 16 to 0.016 μg/mL (total of 11 compound concentrations) in RPMI-1640 (Roswell Park Memorial Institute) medium containing 3-(N-morpholino)propanesulfonic acid (MOPS) buffer and 2% DMSO. A 100 μL aliquot of the dilutions was added to columns 1 (16 μg/mL compound) through 11 (0.016 μg/mL compound) of a 96-well microtiter plate. This format was replicated in a second row of the microtiter plate. Thus, each microtiter plate could include 11 concentrations of four test or control compounds replicated twice. A 100 μL aliquot of RPMI-1640/MOPS/2% DMSO medium was added to column 12 (no compound control) of the microtiter plate. A fresh culture of S. tritici was used to prepare a solution of approximately 5×10^4 colony-forming units per milliliter (cfu/mL) in RPMI/MOPS medium without DMSO. A 100 μL aliquot of this solution was added to all 96 wells in the microtiter plate. […] The assay plates were incubated at 22° C. for seven days in the dark without shaking. […] In each case of Table 3 the rating scale is as follows: […]
(In general: Dilution methods test growth across graded concentrations, often in twofold steps.)

Chain of CYP3A4 (P08684 whole entry): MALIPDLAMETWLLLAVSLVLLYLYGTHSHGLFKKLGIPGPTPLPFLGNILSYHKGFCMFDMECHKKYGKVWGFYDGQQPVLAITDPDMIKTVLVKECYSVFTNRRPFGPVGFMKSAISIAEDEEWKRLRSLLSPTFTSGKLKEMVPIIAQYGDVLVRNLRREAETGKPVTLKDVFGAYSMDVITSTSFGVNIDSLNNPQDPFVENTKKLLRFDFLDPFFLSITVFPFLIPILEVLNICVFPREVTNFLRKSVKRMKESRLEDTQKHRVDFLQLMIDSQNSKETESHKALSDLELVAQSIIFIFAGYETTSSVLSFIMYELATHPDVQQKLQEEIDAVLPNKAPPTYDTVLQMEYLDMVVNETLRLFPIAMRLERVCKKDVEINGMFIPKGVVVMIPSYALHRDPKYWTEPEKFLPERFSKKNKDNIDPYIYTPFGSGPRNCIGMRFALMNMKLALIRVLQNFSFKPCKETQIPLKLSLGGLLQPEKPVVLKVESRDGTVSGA
Chain of CYP2C19 (P33261 whole entry): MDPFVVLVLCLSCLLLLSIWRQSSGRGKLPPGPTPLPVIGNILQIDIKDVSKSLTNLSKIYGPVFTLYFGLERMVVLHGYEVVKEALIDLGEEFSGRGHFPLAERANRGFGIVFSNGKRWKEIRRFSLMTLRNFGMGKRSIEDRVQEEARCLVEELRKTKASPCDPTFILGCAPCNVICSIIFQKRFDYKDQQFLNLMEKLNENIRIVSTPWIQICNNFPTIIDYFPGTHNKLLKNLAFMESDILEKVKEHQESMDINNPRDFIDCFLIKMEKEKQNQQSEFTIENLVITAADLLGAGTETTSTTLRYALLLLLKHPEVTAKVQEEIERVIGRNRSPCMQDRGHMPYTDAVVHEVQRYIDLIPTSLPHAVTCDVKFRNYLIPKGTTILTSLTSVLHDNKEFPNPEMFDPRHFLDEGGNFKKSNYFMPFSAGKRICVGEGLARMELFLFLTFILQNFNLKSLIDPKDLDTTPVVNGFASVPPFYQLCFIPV
Chain of CYP2C9 (P11712 whole entry): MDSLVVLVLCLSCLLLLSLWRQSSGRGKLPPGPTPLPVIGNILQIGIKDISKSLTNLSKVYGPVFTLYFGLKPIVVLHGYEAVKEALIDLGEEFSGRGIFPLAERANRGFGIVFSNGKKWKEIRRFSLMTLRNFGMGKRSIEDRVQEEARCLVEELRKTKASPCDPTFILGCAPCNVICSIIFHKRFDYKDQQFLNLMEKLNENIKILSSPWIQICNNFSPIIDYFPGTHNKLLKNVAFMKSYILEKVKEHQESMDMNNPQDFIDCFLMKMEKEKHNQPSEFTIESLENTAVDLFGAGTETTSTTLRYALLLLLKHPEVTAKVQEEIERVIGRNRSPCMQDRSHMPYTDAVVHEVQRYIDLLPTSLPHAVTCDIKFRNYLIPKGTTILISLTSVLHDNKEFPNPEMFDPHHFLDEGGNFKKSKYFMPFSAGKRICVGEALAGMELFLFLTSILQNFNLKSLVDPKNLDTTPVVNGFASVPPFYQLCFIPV
Method for CYP2C19: (§1) B Inhibition of Liver Cytochrome P450 Enzymes
(§2) Solutions of each test compound were separately prepared at concentrations of 20000, 6000, 2000, 600, 200, and 60 μM by serial dilution with DMSO:MeCN (50:50 v/v). The individual test compound solutions were then diluted 20-fold with DMSO:MeCN:deionized water (5:5:180 v/v/v) to concentrations of 1000, 300, 100, 30, 10, and 3 μM. Mixtures of isozyme inhibitors (sulfaphenazole, tranylcypromine, and ketoconazole as specific inhibitors of isozymes 2C9, 2C19, and 3A4, respectively) were prepared containing each inhibitor at concentrations of 6000, 2000, 600, 200, 60, 20, 6, and 2 μM by serial dilution with DMSO:ACN (50:50 v/v). […]
(§3) Pooled human liver microsome suspension (20 mg/mL) was diluted with phosphate buffer to obtain a 5 mg/mL suspension. […] Separate stock solutions of each substrate were prepared in DMSO:MeCN (50:50 v/v), mixed, and diluted in phosphate buffer to obtain a single solution containing each substrate at five times its experimentally determined Km concentration. […]
(§4) Substrate solution and microsome suspension were combined in a 1:1 volume ratio, mixed, and distributed to reaction wells of a PCR plate. […] A portion of the supernatant was analyzed by gradient reverse-phase HPLC with detection by electrospray ionization triple quadrupole mass spectrometry in the positive ion mode. […]
Method for CYP2C9: as §1, §2, §3, §4
Method for CYP3A4: as §1, §2, §3, §4

The compound `OC(Cn1cnnn1)(c1ccc(F)cc1F)C(F)(F)c1ccc2cc(Br)ccc2n1` (stereo not shown) [Compound 9, 1-(6-Bromoquinolin-2-yl)-2-(2,4-difluorophenyl)-1,1-difluoro-3-(1H-tetrazol-1-yl)propan-2-ol] yielded a minimal inhibitory concentration (MIC) against C. albicans of 0.016 µg/mL (≈ 0.0332 µM). Besides, the results for the pIC50 against CYP2C19, against CYP2C9 and against CYP3A4 were 4.92, 4.89 and 4.96, respectively.

As for `OC(Cn1cnnn1)(c1ccc(F)cc1F)C(F)(F)c1cnc2cc(Cl)ccc2n1` (stereo not shown) [Compound 10, 1-(6-Chloroquinoxalin-2-yl)-2-(2,4-difluorophenyl)-1,1-difluoro-3-(1H-tetrazol-1-yl)propan-2-ol], inhibition of growth in the test with C. albicans (MIC) required 0.125 µg/mL (≈ 0.285 µM). In addition, the pIC50 is 4.54 at CYP2C19, 4.38 against CYP2C9 and 4.35 against CYP3A4.

In turn, `OC(Cn1cnnn1)(c1ccc(F)cc1F)C(F)(F)c1ccc2cc(C(F)F)ccc2n1` (stereo not shown) [Compound 25, 1-(6-(Difluoromethyl)quinolin-2-yl)-2-(2,4-difluorophenyl)-1,1-difluoro-3-(1H-tetrazol-1-yl)propan-2-ol] registered a disease control in test [1] of more than 80%. For the same compound, the MIC in test [2] was not above 0.5 µg/mL.

As to `Cc1ccc2nc(C(F)(F)C(O)(Cn3cnnn3)c3ccc(F)cc3F)ccc2c1` (stereo not shown) [Compound 26, 2-(2,4-Difluorophenyl)-1,1-difluoro-1-(6-methylquinolin-2-yl)-3-(1H-tetrazol-1-yl)propan-2-ol], the disease control in test [1] is recorded as more than 80%. In addition, the MIC in test [2] was not above 0.5 µg/mL.

In the case of `OC(Cn1cnnn1)(c1ccc(F)cc1F)C(F)(F)c1nc2ccc(Br)cc2s1` (stereo not shown) [Compound 27, 1-(6-Bromobenzo[d]thiazol-2-yl)-2-(2,4-difluorophenyl)-1,1-difluoro-3-(1H-tetrazol-1-yl)propan-2-ol], the disease control in test [1] is on record as more than 80%. Besides, the MIC in test [2] is not above 0.5 µg/mL.

For `OC(Cn1ncnn1)(c1cc(F)ccc1F)C(F)(F)c1ccc2cc(Cl)ccc2n1` (stereo not shown) [Compound 28, 1-(6-Chloroquinolin-2-yl)-2-(2,5-difluorophenyl)-1,1-difluoro-3-(2H-tetrazol-2-yl)propan-2-ol], the disease control in test [1] is recorded as more than 80%. In addition, the MIC in test [2] was not above 0.5 µg/mL.

In test [1], `OC(Cn1cnnn1)(c1ccc(F)cc1)C(F)(F)c1ccc2cc(Cl)ccc2n1` (stereo not shown) [Compound 32, 1-(6-Chloroquinolin-2-yl)-1,1-difluoro-2-(4-fluorophenyl)-3-(1H-tetrazol-1-yl)propan-2-ol] registered a disease control of more than 80%. Moreover, the minimum inhibitory concentration (MIC) in test [2] is not above 0.5 µg/mL.

In turn, `OC(Cn1cnnn1)(c1ccc(Cl)cc1F)C(F)(F)c1cnc2cc(Cl)ccc2n1` (stereo not shown) [Compound 34, 2-(4-Chloro-2-fluorophenyl)-1-(6-chloroquinoxalin-2-yl)-1,1-difluoro-3-(1H-tetrazol-1-yl)propan-2-ol] had a disease control in test [1] of more than 80%. Further, the minimum inhibitory concentration (MIC) in test [2] was not above 0.5 µg/mL.

`OC(Cn1cnnn1)(c1ccc(F)cc1F)C(F)(F)c1cc2ccc(Cl)cc2cn1` (stereo not shown) [Compound 37, 1-(7-Chloroisoquinolin-3-yl)-2-(2,4-difluorophenyl)-1,1-difluoro-3-(1H-tetrazol-1-yl)propan-2-ol]: in test [1], the disease control is listed as more than 80%. In test [2], the MIC is not above 0.5 µg/mL.

The compound `OC(Cn1cnnn1)(c1ccc(F)cc1F)C(F)(F)c1cnc2cc(Br)ccc2n1` (stereo not shown) [Compound 38, 1-(6-Bromoquinoxalin-2-yl)-2-(2,4-difluorophenyl)-1,1-difluoro-3-(1H-tetrazol-1-yl)propan-2-ol] had a disease control in test [1] of more than 80%. In addition, the minimum inhibitory concentration (MIC) in test [2] is not above 0.5 µg/mL.

In turn, `OC(Cn1cnnn1)(c1ccc(F)cc1F)C(F)(F)c1cnc(-c2ccc(OC(F)F)cc2)cn1` (stereo not shown) [Compound 39, 1-(5-(4-(Difluoromethoxy)phenyl)pyrazin-2-yl)-2-(2,4-difluorophenyl)-1,1-difluoro-3-(1H-tetrazol-1-yl)propan-2-ol] had a disease control in test [1] of more than 80%. Further, the minimal inhibitory concentration (MIC) in test [2] is not above 0.5 µg/mL.

In the case of `OC(Cn1cnnn1)(c1ccc(F)cc1F)C(F)(F)c1cnc(-c2ccc(OC(F)(F)F)cc2)cn1` (stereo not shown) [Compound 42, 2-(2,4-Difluorophenyl)-1,1-difluoro-3-(1H-tetrazol-1-yl)-1-(5-(4-(trifluoromethoxy)phenyl)pyrazin-2-yl)propan-2-ol], the disease control in test [1] was more than 80%. Moreover, the minimal inhibitory concentration (MIC) in test [2] is not above 0.5 µg/mL.

In turn, `OC(Cn1cnnn1)(c1ccc(F)cc1F)C(F)(F)c1cnc(-c2ccc(Br)cc2)cn1` (stereo not shown) [Compound 43, 1-(5-(4-Bromophenyl)pyrazin-2-yl)-2-(2,4-difluorophenyl)-1,1-difluoro-3-(1H-tetrazol-1-yl)propan-2-ol] returned a disease control in test [1] of more than 80%. The MIC in test [2] is not above 0.5 µg/mL.

The compound `COc1ccc(-c2cnc(C(F)(F)C(O)(Cn3cnnn3)c3ccc(F)cc3F)cn2)cc1` (stereo not shown) [Compound 48, 2-(2,4-Difluorophenyl)-1,1-difluoro-1-(5-(4-methoxyphenyl)pyrazin-2-yl)-3-(1H-tetrazol-1-yl)propan-2-ol] displayed a disease control in test [1] of more than 80%. Besides, the MIC in test [2] was not above 0.5 µg/mL.

On to `OC(Cn1cnnn1)(c1ccc(F)cc1F)C(F)(F)c1cnc(CCc2ccc(F)cc2)cn1` (stereo not shown) [Compound 52, 2-(2,4-Difluorophenyl)-1,1-difluoro-1-(5-(4-fluorophenethyl)pyrazin-2-yl)-3-(1H-tetrazol-1-yl)propan-2-ol], for which, in test [1], the disease control is reported as more than 80%. For the same compound, the MIC in test [2] is not above 0.5 µg/mL.

For `OC(Cn1cnnn1)(c1ccc(F)cc1F)C(F)(F)c1ccc(-c2ccc(C(F)(F)F)cc2)nn1` (stereo not shown) [Compound 56, 2-(2,4-Difluorophenyl)-1,1-difluoro-3-(1H-tetrazol-1-yl)-1-(6-(4-(trifluoromethyl)phenyl)pyridazin-3-yl)propan-2-ol], the disease control in test [1] is listed as more than 80%. Moreover, the MIC in test [2] was in the range of 0.5 to 1.5 µg/mL (≈ 1 to 3.01 µM).

In the case of `OC(Cn1cnnn1)(c1ccc(F)cc1F)C(F)(F)c1ccc(-c2ccc(OC(F)(F)F)cc2)nn1` (stereo not shown) [Compound 57, 2-(2,4-Difluorophenyl)-1,1-difluoro-3-(1H-tetrazol-1-yl)-1-(6-(4-(trifluoromethoxy)phenyl)pyridazin-3-yl)propan-2-ol], in test [1], the disease control is given as more than 80%. In addition, the minimum inhibitory concentration (MIC) in test [2] was not above 0.5 µg/mL.

In the test with C. albicans, `OC(Cn1cncn1)(Cn1cncn1)c1ccc(F)cc1F` [Fluconazole, reference compound] registered a minimum inhibitory concentration (MIC) of 0.5 µg/mL (≈ 1.63 µM).

Turning to `C[C@@H](c1ncncc1F)[C@](O)(Cn1cncn1)c1ccc(F)cc1F` [Voriconazole, reference compound], the MIC in the test with C. albicans came to 0.016 µg/mL (≈ 0.0458 µM).

(Values after patent US8883797B2, “Metalloenzyme inhibitor compounds” (Viamet Pharmaceuticals, Inc., priority 2011, dated 2014).)
